How the values were obtained:
Assay type in all cases: in vivo, human (patients)
seizures in patients = test: Onset of effect of seizure reduction during CBD titration; conditions: patients receiving 5 mg/kg/day; e.g., at 2, 3, 4, 5, or 6 days
[1] = tested on: Patients aged 1-2 years old with Tuberous Sclerosis Complex (TSC); test: Expanded access treatment with highly purified CBD extract, seizure frequency, Patient 3 (Tuberous Sclerosis Complex); set-up: key to Seizure frequency, Focal with impairment / Seizure frequency, Focal without impairment: number of seizures per day; conditions: for Seizure frequency, Focal without impairment / Seizure frequency, Focal with impairment / Seizure frequency, Focal with secondary generalisation: Patient 3, Tuberous Sclerosis; for Seizure frequency, Focal without impairment: baseline 0.0; for Seizure frequency, Focal with impairment: baseline 25.4; for Seizure frequency, Focal with secondary generalisation: baseline 63.0
Experimental: (§1) Example 1 below describes the use of a highly purified cannabis extract comprising cannabidiol (CBD) in an expanded access treatment program in children with TRE.
(§2) Patients aged 1-2 years old with Dravet Syndrome (DS), Lennox-Gastaut Syndrome (LGS), or Tuberous Sclerosis Complex (TSC) were administered a highly purified extract of cannabidiol (CBD) obtained from a cannabis plant […].
(§3) The highly purified CBD extract (greater than 98% CBD w/w) was administered in a formulation described herein at a starting dose of 5 mg/kg/day in addition to their baseline anti-epileptic drug (AED) regimen.
(§4) The starting dose of the patients was increased from 5 mg/kg/day to 10 mg/kg/day after one week of administering the first dose of CBD.
(§5) All patients were taking at least two concomitant anti-epileptic drugs. These included clobazam; levetiracetam; topiramate; vigabatrin; phenobarbital; and lacosamide.
(§6) Prior to treatment with CBD, the number of seizures for each patient at baseline was recorded. During the course of treatment, the number of seizures that each patient experienced per day was recorded. Table 9 provides information on the demographics, seizure type, and concomitant anti-epileptic drugs (AED) for each patient that was administered the highly purified extract of CBD.

[2] = tested on: Patients aged 1-2 years old with Lennox-Gastaut Syndrome (LGS); test: Expanded access treatment with highly purified CBD extract, seizure frequency, Patient 2 (Lennox-Gastaut Syndrome); set-up: key to Seizure frequency, Clonic / Seizure frequency, Tonic / Seizure frequency, Atonic / Seizure frequency, Absence: number of seizures per day; conditions: for Seizure frequency, Tonic: baseline 4.0; for Seizure frequency, Absence: baseline 120.0; for Seizure frequency, Clonic: baseline 200.0; for Seizure frequency, Atonic: baseline 300.0
Experimental: as §1, §2, §3, §4, §5, §6

[3] = tested on: Patients aged 1-2 years old with Dravet Syndrome (DS); test: Expanded access treatment with highly purified CBD extract, seizure frequency, Patient 1 (Dravet Syndrome); set-up: key to Seizure frequency, Clonic / Seizure frequency, Tonic-clonic / Seizure frequency, Focal with impairment: number of seizures per day; conditions: for Seizure frequency, Focal with impairment / Seizure frequency, Tonic-clonic: baseline 3.0; for Seizure frequency, Clonic: baseline 4.0
Experimental: as §1, §2, §3, §4, §5, §6

[4] = Patient 3, Tuberous Sclerosis Complex, over the treatment period
[5] = 2 weeks, dose CBD 10.0 mg/kg/day
[6] = 4 weeks, dose CBD 20.0 mg/kg/day
[7] = 8 weeks, dose CBD 15.0 mg/kg/day
[8] = 16 weeks, dose CBD 15.0 mg/kg/day
[9] = 24 weeks, dose CBD 13.0 mg/kg/day
[10] = 36 weeks, dose CBD 13.0 mg/kg/day
[11] = 48 weeks, dose CBD 13.0 mg/kg/day
[12] = 60 weeks, dose CBD 11.5 mg/kg/day
[13] = 84 weeks, dose CBD 27.0 mg/kg/day
[14] = 96 weeks, dose CBD 22.0 mg/kg/day
[15] = 108 weeks, dose CBD 13.0 mg/kg/day
[16] = 120 weeks, dose CBD 29.0 mg/kg/day
[17] = 144 weeks, dose CBD 35.0 mg/kg/day
[18] = Patient 2, Lennox-Gastaut Syndrome, 4 weeks, dose CBD 25.0 mg/kg/day
[19] = Patient 2, Lennox-Gastaut Syndrome, 8 weeks, dose CBD 50.0 mg/kg/day
[20] = Patient 2, Lennox-Gastaut Syndrome, 12 weeks, dose CBD 49.6 mg/kg/day
[21] = Patient 2, Lennox-Gastaut Syndrome, 24 weeks, dose CBD 49.0 mg/kg/day
[22] = Patient 2, Lennox-Gastaut Syndrome, 36 weeks, dose CBD 48.6 mg/kg/day
[23] = Patient 2, Lennox-Gastaut Syndrome, 60 weeks, dose CBD 3.7 mg/kg/day
[24] = Patient 2, Lennox-Gastaut Syndrome, 72 weeks, dose CBD 50.0 mg/kg/day
[25] = Patient 2, Lennox-Gastaut Syndrome, over the treatment period
[26] = Patient 1, Dravet Syndrome, 2 weeks, dose CBD 11.7 mg/kg/day
[27] = Patient 1, Dravet Syndrome, 4 weeks, dose CBD 19.2 mg/kg/day
[28] = Patient 1, Dravet Syndrome, 8 weeks, dose CBD 24.3 mg/kg/day
[29] = Patient 1, Dravet Syndrome, 16 weeks, dose CBD 25.4 mg/kg/day
[30] = Patient 1, Dravet Syndrome, 24 weeks, dose CBD 24.8 mg/kg/day
[31] = Patient 1, Dravet Syndrome, 36 weeks, dose CBD 23.0 mg/kg/day
[32] = Patient 1, Dravet Syndrome, 48 weeks, dose CBD 22.6 mg/kg/day
[33] = Patient 1, Dravet Syndrome, over the treatment period

`C=C(C)[C@@H]1CCC(C)=C[C@H]1c1c(O)cc(CCCCC)cc1O` [CBD, Cannabidiol] was tested, and the “onset of effect of seizure reduction” value (seizures in patients) was “within one week”, the “relief from focal seizures with impairment after treatment” value ([1]; Patient 3) was “complete relief” and the “reduction in focal seizures with impairment” value [1, 4] was 100%. The “reduction in focal seizures with secondary generalisation” value [1, 4] was 100%, the “Seizure frequency, Focal without impairment” value [1, 5] was 0.0 and the “Seizure frequency, Focal with impairment” value [1, 5] was 20.0. For the same compound, the “Seizure frequency, Focal with secondary generalisation” value [1, 5] was 50.0, the “Seizure frequency, Focal without impairment” value [1, 6] was 0.0 and the “Seizure frequency, Focal with impairment” value [1, 6] was 22.0. The “Seizure frequency, Focal with secondary generalisation” value [1, 6] was 61.0, the “Seizure frequency, Focal without impairment” value [1, 7] was 0.0 and the “Seizure frequency, Focal with impairment” value [1, 7] was 15.4. The “Seizure frequency, Focal with secondary generalisation” value [1, 7] was 109.1, the “Seizure frequency, Focal without impairment” value [1, 8] was 0.0 and the “Seizure frequency, Focal with impairment” value [1, 8] was 0.6. For the same compound, the “Seizure frequency, Focal with secondary generalisation” value [1, 8] was 46.2, the “Seizure frequency, Focal without impairment” value [1, 9] was 0.0 and the “Seizure frequency, Focal with impairment” value [1, 9] was 0.0. For the same compound, the “Seizure frequency, Focal with secondary generalisation” value [1, 9] was 58.1, the “Seizure frequency, Focal without impairment” value [1, 10] was 0.0 and the “Seizure frequency, Focal with impairment” value [1, 10] was 0.0. The “Seizure frequency, Focal with secondary generalisation” value [1, 10] was 0.0, the “Seizure frequency, Focal without impairment” value [1, 11] was 0.0 and the “Seizure frequency, Focal with impairment” value [1, 11] was 0.0. For the same compound, the “Seizure frequency, Focal with secondary generalisation” value [1, 11] was 14.8, the “Seizure frequency, Focal without impairment” value [1, 12] was 0.0 and the “Seizure frequency, Focal with impairment” value [1, 12] was 71.3. The “Seizure frequency, Focal with secondary generalisation” value [1, 12] was 0.0, the “Seizure frequency, Focal without impairment” value [1, 13] was 0.0 and the “Seizure frequency, Focal with impairment” value [1, 13] was 62.5. For the same compound, the “Seizure frequency, Focal with secondary generalisation” value [1, 13] was 0.0, the “Seizure frequency, Focal without impairment” value [1, 14] was 0.0 and the “Seizure frequency, Focal with impairment” value [1, 14] was 14.8. For the same compound, the “Seizure frequency, Focal with secondary generalisation” value [1, 14] was 0.0, the “Seizure frequency, Focal without impairment” value [1, 15] was 10.8 and the “Seizure frequency, Focal with impairment” value [1, 15] was 0.3. For the same compound, the “Seizure frequency, Focal with secondary generalisation” value [1, 15] was 0.0, the “Seizure frequency, Focal without impairment” value [1, 16] was 11.4 and the “Seizure frequency, Focal with impairment” value [1, 16] was 0.0. For the same compound, the “Seizure frequency, Focal with secondary generalisation” value [1, 16] was 0.0, the “Seizure frequency, Focal without impairment” value [1, 17] was 9.8 and the “Seizure frequency, Focal with impairment” value [1, 17] was 0.0. The “Seizure frequency, Focal with secondary generalisation” value [1, 17] was 0.0, the “relief from clonic seizures after treatment” value ([2]; Patient 2) was “complete relief” and the “Seizure frequency, Tonic” value [2, 18] was 116.0. The “Seizure frequency, Absence” value [2, 18] was 116.0, the “Seizure frequency, Clonic” value [2, 18] was 64.0 and the “Seizure frequency, Atonic” value [2, 18] was 388.0. The “Seizure frequency, Tonic” value [2, 19] was 48.0, the “Seizure frequency, Absence” value [2, 19] was 78.0 and the “Seizure frequency, Clonic” value [2, 19] was 40.0. The “Seizure frequency, Atonic” value [2, 19] was 564.0, the “Seizure frequency, Tonic” value [2, 20] was 116.0 and the “Seizure frequency, Absence” value [2, 20] was 140.0. The “Seizure frequency, Clonic” value [2, 20] was 40.0, the “Seizure frequency, Atonic” value [2, 20] was 300.0 and the “Seizure frequency, Tonic” value [2, 21] was 116.0. For the same compound, the “Seizure frequency, Absence” value [2, 21] was 140.0, the “Seizure frequency, Clonic” value [2, 21] was 40.0 and the “Seizure frequency, Atonic” value [2, 21] was 280.0. The “Seizure frequency, Tonic” value [2, 22] was 116.0, the “Seizure frequency, Absence” value [2, 22] was 140.0 and the “Seizure frequency, Clonic” value [2, 22] was 40.0. The “Seizure frequency, Atonic” value [2, 22] was 280.0, the “Seizure frequency, Tonic” value [2, 23] was 1.0 and the “Seizure frequency, Absence” value [2, 23] was 40.0. The “Seizure frequency, Clonic” value [2, 23] was 0.0, the “Seizure frequency, Atonic” value [2, 23] was 1.0 and the “Seizure frequency, Tonic” value [2, 24] was 20.0. For the same compound, the “Seizure frequency, Absence” value [2, 24] was 0.0, the “Seizure frequency, Clonic” value [2, 24] was 0.0 and the “Seizure frequency, Atonic” value [2, 24] was 0.0. The “reduction in absence seizures” value [2, 25] was 100%, the “reduction in atonic seizures” value [2, 25] was 100% and the “reduction in clonic seizures” value [2, 25] was 100%. For the same compound, the “relief from clonic seizures after treatment” value ([3]; Patient 1) was “complete relief”, the “relief from focal seizures with impairment after treatment” value ([3]; Patient 1) was “complete relief” and the “Seizure frequency, Focal with impairment” value [3, 26] was 0.0. The “Seizure frequency, Tonic-clonic” value [3, 26] was 4.0, the “Seizure frequency, Clonic” value [3, 26] was 6.0 and the “Seizure frequency, Focal with impairment” value [3, 27] was 0.0. The “Seizure frequency, Tonic-clonic” value [3, 27] was 2.0, the “Seizure frequency, Clonic” value [3, 27] was 4.0 and the “Seizure frequency, Focal with impairment” value [3, 28] was 0.0. The “Seizure frequency, Tonic-clonic” value [3, 28] was 0.0, the “Seizure frequency, Clonic” value [3, 28] was 2.0 and the “Seizure frequency, Focal with impairment” value [3, 29] was 0.0. The “Seizure frequency, Tonic-clonic” value [3, 29] was 0.0, the “Seizure frequency, Clonic” value [3, 29] was 2.6 and the “Seizure frequency, Focal with impairment” value [3, 30] was 0.0. The “Seizure frequency, Tonic-clonic” value [3, 30] was 1.6, the “Seizure frequency, Clonic” value [3, 30] was 0.8 and the “Seizure frequency, Focal with impairment” value [3, 31] was 0.0. For the same compound, the “Seizure frequency, Tonic-clonic” value [3, 31] was 6.9, the “Seizure frequency, Clonic” value [3, 31] was 0.0 and the “Seizure frequency, Focal with impairment” value [3, 32] was 0.0. For the same compound, the “Seizure frequency, Tonic-clonic” value [3, 32] was 6.5, the “Seizure frequency, Clonic” value [3, 32] was 0.0 and the “reduction in clonic seizures” value [3, 33] was 100%. For the same compound, the “reduction in focal seizures with impairment” value [3, 33] was 100%.
